Data reported in patent US20230312524A1, “ALPHA1A-ADRENERGIC RECEPTOR AGONISTS AND METHODS OF USE” (CuraSen Therapeutics, Inc., priority 2020, published 2023).
Structures can show the parent of a compound that is named as a salt. Where two headings read alike, the source gives them in different places.

Legend:
α1A-ARS = biological target: T1, α1A-ARS (Homo sapiens, UniProt P35348); test: Calcium flux assay (Calcium 6 dye) in cells expressing an α1-AR; assay type: cell-based; conditions: for Emax: read-out: Average Emax
T1 sequence (P35348 1-466): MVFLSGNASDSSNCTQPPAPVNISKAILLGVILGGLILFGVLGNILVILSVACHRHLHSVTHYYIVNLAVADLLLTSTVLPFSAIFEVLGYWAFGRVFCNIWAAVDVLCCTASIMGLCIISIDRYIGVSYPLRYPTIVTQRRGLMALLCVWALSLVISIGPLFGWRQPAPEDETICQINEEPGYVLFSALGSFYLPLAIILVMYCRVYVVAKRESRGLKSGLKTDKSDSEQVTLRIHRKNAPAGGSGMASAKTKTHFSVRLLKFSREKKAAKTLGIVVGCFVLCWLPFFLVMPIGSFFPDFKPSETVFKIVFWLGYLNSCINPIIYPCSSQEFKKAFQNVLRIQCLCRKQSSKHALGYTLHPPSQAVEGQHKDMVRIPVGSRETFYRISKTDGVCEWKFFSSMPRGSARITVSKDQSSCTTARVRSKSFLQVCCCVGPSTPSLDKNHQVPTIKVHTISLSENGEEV
Description: Calcium flux experimental design: alpha-1 adrenergic receptors (α1-ARs) couple to Gq proteins, which results in downstream activation of phospholipase C and release of calcium from intracellular stores. Intracellular calcium increase upon α1-AR activation can be detected by Calcium 6 dye.
Cell preparation: cells expressing an α1-AR were washed in warmed phosphate-buffered saline to remove medium and harvested using versene (Caisson Labs, catalog #EDL01).
Media was removed from cells by tapping plates upside-down on absorbent wipes, followed by 15 second upside-down 50×g centrifugation, again on absorbent wipes. 12 μL cell dye solution was added to cells using a reagent dispenser (Integra viaFILL) and cells were incubated for 90 minutes at 37° C., 5% CO2.
Compound preparation: candidate alpha-adrenergic compounds, dissolved to 10 mM in DMSO, were diluted in_assay buffer (HBSS/H-EPES containing 2 mM CaCl2 and 2 mM probenecid sodium salt). […] On all assay plates, vehicle (DMSO) and positive control (10 μM epinephrine) conditions were included on the plate, as well as a dose-response curve of epinephrine. […] 384 well compound plates were centrifuged briefly at 250×g, sealed (Axygen PCR-SP) and incubated at 37° C. until the 90 minute cell dye incubation was complete.
Calcium 6 stained cells and 384 well compound plates were loaded onto the Flexstation and incubated on the machine for 5 minutes before initiating the assay.
For each assay well, baseline Calcium 6 fluorescence was detected for 18 seconds prior to 12 μL compound addition at 12 μL per second. Changes in Calcium 6 fluorescence were detected for a further 22 seconds, for a total read time of 40 seconds. All detection was performed with medium gain sensitivity, bottom read, with 6 flashes per read.
Data analysis: for calcium flux, analysis of maximum change from baseline over the 40-second read time was determined using Softmax Pro and data was exported as raw text files. Potency estimates (EC50) were derived from dose response curves (maximum change from baseline versus the log concentration of test compound) fit by four-parameter nonlinear regression using Graphpad Prism. Efficacy was determined by comparing the magnitude of the test compound signal window (fitted curve max−min) with the signal window of the full agonist control, epinephrine. […] All experiments were repeated a minimum of three times, with the average (mean) potency and maximum effect relative to the within-plate full agonist dose-response comparator reported.

α1A-adrenergic receptor [1] = biological target: T2, α1A-adrenergic receptor (Homo sapiens, UniProt P35348); conditions: as compared to noradrenaline; InsPs accumulation assay; Blue et al., Table 1; cited from earlier work
T2 sequence (P35348 1-466): T1 sequence (P35348 1-466)

α1A-adrenergic receptor [2] = biological target: T2, α1A-adrenergic receptor; conditions: as compared to noradrenaline; FLIPR assay; Blue et al., Table 1; cited from earlier work
[3] = calcium flux, α1A-AR, maximum effect relative to full agonist epinephrine
[4] = calcium flux, α1A-AR, mean of at least three experiments, read-out: Average PEC50

Row | Emax (α1A-ARS; [3]) [%] | Compound | EC50 (α1A-ARS; [4]) [nM] | Emax (α1A-ARS) [%] | further results
1 | < 20 | C[C@@H](O)c1cc(Cl)ccc1CC1=NCCN1 [Compound 146] | > 1000 | – | –
2 | – | C[C@H](F)c1cc(Cl)ccc1CC1=NCCN1 [Compound 147] | 10 to 977 | 21 to 60 | –
3 | – | Cc1cc(CC2=NCCN2)cc(OC(F)F)c1 [Compound 148] | 10 to 977 | > 61 | –
4 | 21 to 60 | Cc1c(CC2=NCCN2)ccc(S(=O)(=O)C(F)F)c1Cl [Compound 149] | > 1000 | – | –
5 | 21 to 60 | CCc1c(CC2=NCCN2)ccc(S(=O)(=O)C(F)(F)F)c1Cl [Compound 150] | > 1000 | – | –
6 | – | CC(F)(F)c1cc(OC(F)F)ccc1CC1=NCCN1 [Compound 151] | 10 to 977 | 21 to 60 | –
7 | – | Clc1ccc(CC2=NCCN2)cc1 [Compound 152] | > 1000 | < 20 | –
8 | – | Clc1ccccc1CC1=NCCN1 [Compound 153] | 10 to 977 | < 20 | –
9 | – | FC(F)(F)c1ccccc1CC1=NCCN1 [Compound 154] | > 1000 | 21 to 60 | –
10 | – | Cc1ccccc1CC1=NCCN1 [Compound 155] | 10 to 977 | 21 to 60 | –
11 | – | COc1ccccc1CC1=NCCN1 [Compound 156] | 10 to 977 | 21 to 60 | –
12 | – | CC(F)(F)c1ccc(CC2=NCCN2)c(Cl)c1 [Compound 157] | 10 to 977 | > 61 | –
13 | 21 to 60 | c1ccc(-c2ncco2)c(CC2=NCCN2)c1 [Compound 158] | 10 to 977 | – | –
14 | 21 to 60 | Cc1c(CC2=NCCN2)ccc(S(=O)(=O)C(F)(F)F)c1Cl [Compound 159] | > 1000 | – | –
15 | – | FC(F)Oc1cccc(CC2=NCCN2)c1Cl [Compound 160] | 10 to 977 | > 61 | –
16 | – | FC(F)Oc1ccc(Cl)c(CC2=NCCN2)c1 [Compound 161] | 10 to 977 | > 61 | –
17 | 21 to 60 | CC(F)(F)c1cc(OC(F)(F)F)ccc1CC1=NCCN1 [Compound 162] | > 1000 | – | –
18 | > 61 | C[C@H](O)c1ccc(CC2=NCCN2)c(Cl)c1 [Compound 163] | 10 to 977 | – | –
19 | > 61 | C[C@@H](O)c1ccc(CC2=NCCN2)c(Cl)c1 [Compound 164] | < 9.77 | – | –
20 | – | Cc1ccc(OC(F)(F)F)cc1CC1=NCCN1 [Compound 165] | – | > 61 | EC50 (α1A-ARS): 10 to 977 nM
21 | – | FC(F)(F)Oc1cccc(CC2=NCCN2)c1Cl [Compound 166] | 10 to 977 | 21 to 60 | –
22 | – | FC(F)(F)Oc1ccc(Cl)c(CC2=NCCN2)c1 [Compound 167] | 10 to 977 | > 61 | –
23 | – | Cc1c(OCC2=NCCN2)ccc(Cl)c1NS(C)(=O)=O [RO 115-1240 (dabuzalgron) HCl salt, dabuzalgron] | – | – | intrinsic activity (α1A-adrenergic receptor [1]): 0.27; intrinsic activity (α1A-adrenergic receptor [2]): 0.51
24 | – | Cc1c(OCC2=NCCN2)ccc(Cl)c1NS(C)(=O)=O [RO 115-1240 (dabuzalgron) free base, dabuzalgron] | – | – | intrinsic activity (α1A-adrenergic receptor [1]): 0.31
